Two compounds from patent US11542271B2, “Fused heteroaromatic-aniline compounds for treatment of dermal disorders” (NFlection Therapeutics, Inc., priority 2017, dated 2023) can be followed below.

“Also recorded” adds a separate entry of the source.

One data set deals with T1, MAP2K1 (MEK1) (Homo sapiens, UniProt Q02750).
T1 construct: purchased ThermoFisher
Description: MEK Inhibition Assay (Biological Example 1b, Z'-LYTE). Conditions: Biological Example 1b (compounds 1, 3, 5, 7-8); read-out: Assay 1: biochemical MEK IC50. The method, then: MEK1 inhibitory activity of compounds were tested using the following procedure (protocol available at thermofisher.com/content/dam/LifeTech/migration/files/drug-discovery/pdfs.par.60256.file.dat/20130430%20ssbk%20customer%20protocol%20and%20assay%20conditions.pdf). The Z′-LYTE biochemical assay (ThermoFisher) employs a fluorescence-based, coupled-enzyme format and is based on the differential sensitivity of phosphorylated and non-phosphorylated peptides to proteolytic cleavage.
Test compounds in 100% DMSO were screened in 1% DMSO (final) in the well. For 10 point titrations, 3-fold serial dilutions are conducted from the starting concentration of 30 μM.
After the 1 hour incubation, 5 μL of a 1:1024 dilution of Development Reagent A (available from Invitrogen, catalog no. PV3295) was added.
ATP solutions were diluted to a 4× working concentration in Kinase Buffer (50 mM HEPES pH 7.5, 0.01% BRIJ-35, 10 mM MgCl2, 1 mM EGTA). ATP Km apparent was previously determined using a Z′-LYTE assay. The Development Reagent was diluted in Development Buffer (available from Invitrogen, catalog no. P3127).
Assay Protocol: 2.5 μL of 4× test compound or 100 nL of 100× Test Compound plus 2.4 μL Kinase Buffer, 5 μL of the 2× Peptide/Kinase Mixture, 2.5 μL of 4×ATP Solution were added to the plates and placed on a shake plate for 30-seconds. The kinase reaction was allowed to proceed for 60-minute at room temperature, before 5 μL of Development Reagent Solution was added, and the mixture agitated for 30-seconds on a shake plate. The mixture was incubated for 60-minute at room temperature. Fluorescence was measured using a plate reader and the data were analyzed.
This control yielded 100% cleaved peptide in the Development Reaction. The 100% Phosphorylation Control, which consisted of a synthetically phosphorylated peptide of the same sequence as the peptide substrate, was designed to allow for the calculation of percent phosphorylation. This control yielded a very low percentage of cleaved peptide in the Development Reaction. The 0% Phosphorylation and 100% Phosphorylation Controls allow for the calculation of the percent phosphorylation achieved in a specific reaction well.
The minimum emission ratio in a screen was established by the 0% Inhibition Control, which contained active kinase. This control was designed to produce a 10-50% phosphorylated peptide in the Kinase Reaction. Cascade assays may produce up to 70% phosphorylated peptide.
A known inhibitor control standard curve, 10 point titration, was run for each individual kinase on the same plate as the kinase to ensure the kinase was inhibited within an expected IC50 range previously determined.
The following controls are prepared for each concentration of Test Compound assayed. […] The expected value for a non-interfering compound should be 100%. Any value outside of 90% to 110% was flagged. […] The expected value for a non-fluorescence compound should be 0%. Any value >20% was flagged.
The data in Table A was calculated. XLfit from IDBS was used. The dose response curve was curve fit to model number 205 (sigmoidal dose-response model).

The nature of data set [1]: S9 Stability Assay, human liver S9 fraction. In kind it is in vitro ADME. The method, then:
Compounds were assessed for metabolic stability in human skin by assessing their rate of disappearance from human S9 skin fraction. Similarly, compounds were assessed for metabolic stability in human liver by assessing their rate of disappearance from human S9 liver fraction. The protocol below can be used to assess the difference between skin and hepatic metabolism.
The assay was carried out in 96-well microtiter plates at 37° C. Reaction mixtures (25 μL) contained a final concentration of 1 μM test compound, 2 mg/mL liver or skin S9 protein, and 1 mM NADPH in buffer (100 mM potassium phosphate, pH 7.4 buffer with 1 mM EDTA, 3 mM MgCl2). At each of the time points (0, 15, 30, and 60 minutes), 150 μL of quench solution (100% acetonitrile with 0.1% formic acid) with internal standard was transferred to each well. Besides the zero minute controls, mixtures containing the same components except the NADPH were also prepared as the negative control. Verapamil or testosterone was included as a positive control to verify assay performance. Plates were sealed and centrifuged at 4° C. for 15 minutes at 4000 rpm. The supernatant was transferred to fresh plates for LC/MS/MS analysis.
All samples were analyzed on LC/MS/MS using an AB Sciex API 4000 instrument, coupled to a Shimadzu LC-20AD LC Pump system. Analytical samples were separated using a Waters Atlantis T3 dC18 reverse phase HPLC column (20 mm×2.1 mm) at a flow rate of 0.5 mL/min. The mobile phase consisted of 0.1% formic acid in water (solvent A) and 0.1% formic acid in 100% acetonitrile (solvent B).
The extent of metabolism was calculated as the disappearance of the test compound, compared to the 0-min control reaction incubations. Initial rates were calculated for the compound concentration and used to determine t1/2 values and subsequently, the intrinsic clearance, CLint=(0.693) (1/t1/2 (min)) (mL incubation/mg of S9 protein).

For data set [2], the system named is p-ERK in human cutaneous neurofibroma explants. Nature of the data set: Human cutaneous neurofibroma explant p-ERK suppression (Biological Example 7). The format is cell-based. The following applies: topical gel formulation (1%), harvested at 4 hours, vs vehicle gel. The text has this:
The primary objective was to assess the efficacy of a topically-formulated compound described herein in suppressing p-ERK, a downstream biomarker of RAS/MAPK signaling in neurofibroma explants. The secondary objectives was to assess permeability (where the compound was applied topically) of neurofibroma explants treated with a compound described herein.
Primary dermal neurofibromas or cutaneous neurofibromas were obtained from patients with clinical or genetic diagnoses of NF1. Discarded human neurofibromas samples were obtained from the Stanford Surgery Clinic, using an approved human subjects protocol (Stanford IRB #18325). Specimens were identified under the direction of the Principal Investigator and placed in cell proliferation media (DMEM/F12 containing penicillin/streptomycin (0.1%); fungizone (40 μg/mL); B27 (without vitamin A).
Specimens were identified under the direction of the Principal Investigator
Specimens were chopped into 2 mm fragments and placed in 24-well plates containing cell proliferation media (DMEM/F12 containing penicillin/streptomycin (0.1%); fungizone (40 μg/mL); B27 (without vitamin A) and submerged in media with drug. For topical gel application, samples were placed in 96 well plates with epidermal surface exposed to air. […]

The next data set has as its system C57BL/6J mice. Nature of the data set: In vivo mouse model of skin and systemic toxicity (Biological Example 6b). Conditions: topically applied 1%, twice daily 5 days per week. The procedure: These mice are also shaved weekly.
Biological Example 6b was carried out with the following arms: oral vehicle, oral Trametinib, topical vehicle, and topical Trametinib (1%).

T1 sequence (Q02750 whole entry): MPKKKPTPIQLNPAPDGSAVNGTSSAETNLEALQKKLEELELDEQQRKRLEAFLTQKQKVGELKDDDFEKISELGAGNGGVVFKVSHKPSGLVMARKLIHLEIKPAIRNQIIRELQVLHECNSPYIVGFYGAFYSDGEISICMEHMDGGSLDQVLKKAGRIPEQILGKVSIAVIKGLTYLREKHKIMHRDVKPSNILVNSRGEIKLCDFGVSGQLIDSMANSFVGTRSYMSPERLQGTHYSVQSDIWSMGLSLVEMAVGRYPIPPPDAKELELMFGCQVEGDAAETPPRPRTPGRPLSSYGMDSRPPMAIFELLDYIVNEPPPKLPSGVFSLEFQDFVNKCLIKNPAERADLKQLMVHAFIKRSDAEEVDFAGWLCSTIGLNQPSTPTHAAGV

With `O=C(NOCCO)c1c(Nc2ccc(I)cc2F)sc2ncc(F)cc12` [Ex. 8, 2-((2-Fluoro-4-iodophenyl)amino)-N-(2-hydroxyethoxy)-5-fluorothieno[2,3-b]pyridine-3-carboxamide], the IC50 (commonly the concentration that gives 50% inhibition) at MAP2K1 (MEK1) came to 256 nM. Moreover, the “Assay 5: human liver S9 intrinsic clearance value (μL/min/mg protein)” value in data set [1] (human liver S9) is 57.15 μL/min/mg protein. Further, in data set [1] (pH 7.4, Table 1, human liver S9 fraction, 1 μM test compound, 2 mg/mL S9 protein, NADPH, read-out: Liver S9 t1/2), the half-life at 1 μM amounted to 6 min. Moreover, the microsomal CLint at 1 μM in data set [1] (pH 7.4, Table 1, human liver S9 fraction, read-out: CLint (μL/min/mg protein)) was 57.1 µL/min/mg. Moreover, the “p-ERK in human cutaneous neurofibroma explants” value in data set [2] is recorded as “suppression of p-ERK”.

As to `CC(=O)Nc1cccc(-n2c(=O)n(C3CC3)c(=O)c3c(Nc4ccc(I)cc4F)n(C)c(=O)c(C)c32)c1` [trametinib], the “toxicity of topical application” value with C57BL/6J mice is on record as “found dead, or had to be sacrificed due to unacceptable weight loss; also recorded: significant toxicity”.
